Data published in ChEMBL document CHEMBL3885881, “DrugMatrix”.

Species: Rattus norvegicus
Assay: DrugMatrix - Regimen: Daily Repeat
Type: toxicity, organism-based, Sprague-Dawley
Parameters: regimen Daily Repeat, gender Male, age 6-8 weeks
Settings: in vivo, po, 30 mg/kg, route oral GAVAGE, dose level Low, […]; for ABSOLUTE BASOPHIL / ABSOLUTE EOSINOPHIL / ABSOLUTE LYMPHOCYTE / ABSOLUTE MONOCYTE / ABSOLUTE SEGMENTED NEUTROPHIL / BASOPHIL / EOSINOPHIL / ERYTHROCYTE COUNT / HEMATOCRIT / HEMOGLOBIN / LEUKOCYTE COUNT / LYMPHOCYTE / MEAN CORPUSCULAR HEMOGLOBIN / MEAN CORPUSCULAR HEMOGLOBIN CONCENTRATION / MEAN CORPUSCULAR VOLUME / MONOCYTE / NEUTROPHIL / NUCLEATED RED BLOOD CELLS / PLATELET COUNT: tissue Blood; for ALANINE AMINOTRANSFERASE / ALBUMIN / ALKALINE PHOSPHATASE / ASPARTATE AMINOTRANSFERASE / BLOOD UREA NITROGEN / CARBON DIOXIDE / CHLORIDE / CHOLESTEROL / CREATINE PHOSPHOKINASE / CREATININE / GLUCOSE / LACTATE DEHYDROGENASE / LIPASE / PHOSPHORUS / POTASSIUM / SODIUM / TOTAL BILIRUBIN / TOTAL PROTEIN / URIC ACID: tissue Plasma

COc1ccc2[nH]c([S+]([O-])Cc3ncc(C)c(OC)c3C)nc2c1 (stereo unspecified) [OMEPRAZOLE]
ABSOLUTE BASOPHIL (72 h, time 3 day): 0 CELLS/uL | ABSOLUTE EOSINOPHIL (72 h, time 3 day): 80 CELLS/uL | ABSOLUTE LYMPHOCYTE (72 h, time 3 day): 11444.67 CELLS/uL | ABSOLUTE MONOCYTE (72 h, time 3 day): 85.33 CELLS/uL | ABSOLUTE SEGMENTED NEUTROPHIL (72 h, time 3 day): 690 CELLS/uL | BASOPHIL (72 h, time 3 day): 0% | EOSINOPHIL (72 h, time 3 day): 0.67% | ERYTHROCYTE COUNT (72 h, time 3 day): 5.41 x10E6/uL | HEMATOCRIT (72 h, time 3 day): 34.37% | HEMOGLOBIN (72 h, time 3 day): 13.77 G/DL | LEUKOCYTE COUNT (72 h, time 3 day): 12.3 x10E3/uL | LYMPHOCYTE (72 h, time 3 day): 93% | MEAN CORPUSCULAR HEMOGLOBIN (72 h, time 3 day): 25.47 pg | MEAN CORPUSCULAR HEMOGLOBIN CONCENTRATION (72 h, time 3 day): 40.07 G/DL | MEAN CORPUSCULAR VOLUME (72 h, time 3 day): 63.53 fL | MONOCYTE (72 h, time 3 day): 0.67% | NEUTROPHIL (72 h, time 3 day): 5.67% | NUCLEATED RED BLOOD CELLS (72 h, time 3 day): 0.67 /100WBC | PLATELET COUNT (72 h, time 3 day): 1225.33 x10E3/uL | ALANINE AMINOTRANSFERASE (72 h, time 3 day): 59.67 u/L | ALBUMIN (72 h, time 3 day): 4.03 G/DL | ALKALINE PHOSPHATASE (72 h, time 3 day): 348.67 u/L | ASPARTATE AMINOTRANSFERASE (72 h, time 3 day): 77.33 u/L | BLOOD UREA NITROGEN (72 h, time 3 day): 12 mg/dL | CARBON DIOXIDE (72 h, time 3 day): 29.33 mmol/L | CHLORIDE (72 h, time 3 day): 101 MEQ/L | CHOLESTEROL (72 h, time 3 day): 72.33 mg/dL | CREATINE PHOSPHOKINASE (72 h, time 3 day): 303.67 u/L | CREATININE (72 h, time 3 day): 0.14 mg/dL | GLUCOSE (72 h, time 3 day): 175.33 mg/dL | LACTATE DEHYDROGENASE (72 h, time 3 day): 111 u/L | LIPASE (72 h, time 3 day): 10.33 u/L | PHOSPHORUS (72 h, time 3 day): 12.23 mg/dL | POTASSIUM (72 h, time 3 day): 6.24 MEQ/L | SODIUM (72 h, time 3 day): 143.63 MEQ/L | TOTAL BILIRUBIN (72 h, time 3 day): 0.17 mg/dL | TOTAL PROTEIN (72 h, time 3 day): 5.8 G/DL | URIC ACID (72 h, time 3 day): 1.57 mg/dL | ABSOLUTE BASOPHIL (120 h, time 5 day): 0 CELLS/uL | ABSOLUTE EOSINOPHIL (120 h, time 5 day): 0 CELLS/uL | ABSOLUTE LYMPHOCYTE (120 h, time 5 day): 8312.33 CELLS/uL | ABSOLUTE MONOCYTE (120 h, time 5 day): 87.33 CELLS/uL | ABSOLUTE SEGMENTED NEUTROPHIL (120 h, time 5 day): 233.67 CELLS/uL | BASOPHIL (120 h, time 5 day): 0% | EOSINOPHIL (120 h, time 5 day): 0% | ERYTHROCYTE COUNT (120 h, time 5 day): 6.01 x10E6/uL | HEMATOCRIT (120 h, time 5 day): 36% | HEMOGLOBIN (120 h, time 5 day): 13.93 G/DL | LEUKOCYTE COUNT (120 h, time 5 day): 8.63 x10E3/uL | LYMPHOCYTE (120 h, time 5 day): 96.33% | MEAN CORPUSCULAR HEMOGLOBIN (120 h, time 5 day): 23.2 pg | MEAN CORPUSCULAR HEMOGLOBIN CONCENTRATION (120 h, time 5 day): 38.73 G/DL | MEAN CORPUSCULAR VOLUME (120 h, time 5 day): 59.9 fL | MONOCYTE (120 h, time 5 day): 1% | NEUTROPHIL (120 h, time 5 day): 2.67% | NUCLEATED RED BLOOD CELLS (120 h, time 5 day): 0 /100WBC | PLATELET COUNT (120 h, time 5 day): 1213.33 x10E3/uL | ALANINE AMINOTRANSFERASE (120 h, time 5 day): 65 u/L | ALBUMIN (120 h, time 5 day): 4.2 G/DL | ALKALINE PHOSPHATASE (120 h, time 5 day): 440.33 u/L | ASPARTATE AMINOTRANSFERASE (120 h, time 5 day): 88.67 u/L | BLOOD UREA NITROGEN (120 h, time 5 day): 14 mg/dL | CARBON DIOXIDE (120 h, time 5 day): 30 mmol/L | CHLORIDE (120 h, time 5 day): 98.67 MEQ/L | CHOLESTEROL (120 h, time 5 day): 69 mg/dL | CREATINE PHOSPHOKINASE (120 h, time 5 day): 217.67 u/L | CREATININE (120 h, time 5 day): 0.27 mg/dL | GLUCOSE (120 h, time 5 day): 163.33 mg/dL | LACTATE DEHYDROGENASE (120 h, time 5 day): 152.67 u/L | LIPASE (120 h, time 5 day): 11.67 u/L | PHOSPHORUS (120 h, time 5 day): 11.43 mg/dL | POTASSIUM (120 h, time 5 day): 5.8 MEQ/L | SODIUM (120 h, time 5 day): 144.67 MEQ/L | TOTAL BILIRUBIN (120 h, time 5 day): 0.17 mg/dL | TOTAL PROTEIN (120 h, time 5 day): 6.1 G/DL | URIC ACID (120 h, time 5 day): 1 mg/dL
